Reference: patent publication US20120264735A1 (priority 2009, published 2012)

The molecules below were run against T1, c-Met kinase (recombinant c-Met) (Homo sapiens, UniProt P08581) (assay: In vitro kinase assay I (homogeneous time-resolved fluorescence tyrosine kinase assay)).
T1 construct: 0.27 nM recombinant c-Met
Type: biochemical
Method in brief: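 Biotinylated peptide (0.5 μM) phosphorylated by 0.2 nM recombinant c-Met with 50 μM MgATP, 60 min at room temperature, pH 7.4, 5% DMSO. EDTA stop; HTRF read with Eu-anti-phosphotyrosine antibody and streptavidin-APC. IC50 from 4-parameter logistic fit.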

T1 sequence (P08581 25-1390): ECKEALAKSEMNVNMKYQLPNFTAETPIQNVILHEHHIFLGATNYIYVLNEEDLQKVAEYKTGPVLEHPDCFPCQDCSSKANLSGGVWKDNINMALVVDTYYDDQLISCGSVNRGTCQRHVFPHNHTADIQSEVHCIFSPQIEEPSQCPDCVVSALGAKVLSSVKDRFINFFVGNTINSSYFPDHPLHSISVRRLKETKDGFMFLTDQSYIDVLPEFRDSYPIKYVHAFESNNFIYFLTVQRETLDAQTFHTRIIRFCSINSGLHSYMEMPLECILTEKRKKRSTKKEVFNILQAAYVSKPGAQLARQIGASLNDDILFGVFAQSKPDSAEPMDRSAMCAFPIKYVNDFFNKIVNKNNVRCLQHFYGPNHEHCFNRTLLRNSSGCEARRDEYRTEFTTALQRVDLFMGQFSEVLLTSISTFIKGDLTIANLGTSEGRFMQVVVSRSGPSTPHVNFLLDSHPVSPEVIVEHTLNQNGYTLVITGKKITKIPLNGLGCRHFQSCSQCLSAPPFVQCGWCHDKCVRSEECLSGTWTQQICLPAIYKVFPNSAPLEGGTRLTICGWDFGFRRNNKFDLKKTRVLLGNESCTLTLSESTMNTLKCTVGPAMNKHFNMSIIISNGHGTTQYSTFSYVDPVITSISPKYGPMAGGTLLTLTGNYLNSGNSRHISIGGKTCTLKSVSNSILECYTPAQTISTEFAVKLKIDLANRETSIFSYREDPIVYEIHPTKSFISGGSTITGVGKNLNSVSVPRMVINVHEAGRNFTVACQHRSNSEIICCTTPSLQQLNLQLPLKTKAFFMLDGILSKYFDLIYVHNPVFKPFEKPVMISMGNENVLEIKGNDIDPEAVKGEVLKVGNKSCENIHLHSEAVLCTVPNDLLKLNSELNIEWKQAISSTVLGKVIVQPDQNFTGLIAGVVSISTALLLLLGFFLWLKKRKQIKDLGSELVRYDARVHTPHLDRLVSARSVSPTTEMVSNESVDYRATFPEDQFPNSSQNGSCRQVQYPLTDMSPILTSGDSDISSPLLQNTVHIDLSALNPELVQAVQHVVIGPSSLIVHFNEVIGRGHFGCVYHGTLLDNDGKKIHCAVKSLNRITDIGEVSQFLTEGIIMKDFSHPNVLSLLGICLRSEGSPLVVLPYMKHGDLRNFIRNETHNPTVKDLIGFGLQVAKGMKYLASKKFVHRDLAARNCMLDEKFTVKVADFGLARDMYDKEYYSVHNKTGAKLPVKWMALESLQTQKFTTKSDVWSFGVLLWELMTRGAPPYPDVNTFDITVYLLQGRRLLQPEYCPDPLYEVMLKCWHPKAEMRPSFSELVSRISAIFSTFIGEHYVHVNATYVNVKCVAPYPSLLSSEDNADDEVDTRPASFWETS

`CCCC(c1cccc(-c2ncc(OCC)cn2)c1)c1nn(-c2cnn(C)c2)ccc1=O` (single isomer, unassigned) [Example 208, 3-{(1R or S)-1-[3-(5-ethoxypyrimidin-2-yl)phenyl]butyl}-1-(1-methyl-1H-pyrazol-4-yl)pyridazin-4(1H)-one] and `COCCOc1cnc(-c2cccc(C(C)c3nn(-c4cnn(C)c4)ccc3=O)c2)nc1` (single isomer, unassigned) [Example 223, 3-((1R or S)-1-{3-[5-(2-methoxyethoxy)pyrimidin-2-yl]phenyl}ethyl)-1-(1-methyl-1H-pyrazol-4-yl)pyridazin-4(1H)-one] cannot be ordered by IC50: < 100 nM for the first, < 100 nM for the second.

`Cn1cc(-n2ccc(=O)c(Cc3cccc(-c4ncc(OCc5ncn(C)n5)cn4)c3)n2)cn1` [Example 356, 1-(1-methyl-1H-pyrazol-4-yl)-3-(3-{5-[(1-methyl-1H-1,2,4-triazol-3-yl)methoxy]pyrimidin-2-yl}benzyl)pyridazin-4(1H)-one] and `Cn1cc(-n2ccc(=O)c(Cc3cccc(-c4ncc(OCCn5cccn5)cn4)c3)n2)cn1` [Example 265, 1-(1-methyl-1H-pyrazol-4-yl)-3-(3-{5-[2-(1H-pyrazol-1-yl)ethoxy]pyrimidin-2-yl}benzyl)pyridazin-4(1H)-one] cannot be ordered by IC50: < 100 nM for the first, < 100 nM for the second.

`O=c1ccn(-c2cc(F)cc(F)c2)nc1Cc1cccc(-c2ncc(OCC3CCOCC3)cn2)c1` [Example 331, 1-(3,5-difluorophenyl)-3-{3-[5-(tetrahydro-2H-pyran-4-ylmethoxy)pyrimidin-2-yl]benzyl}pyridazin-4(1H)-one] and `CN1CCC(COc2cnc(-c3cccc(Cc4nn(-c5cc(F)cc(C#N)c5)ccc4=O)c3)nc2)CC1` [Example 170, 3-fluoro-5-[3-(3-{5-[(1-methylpiperidin-4-yl)methoxy]pyrimidin-2-yl}benzyl)-4-oxopyridazin-1(4H)-yl]benzonitrile] cannot be ordered by IC50: < 100 nM for the first, < 100 nM for the second.

`Cn1cc(-n2ccc(=O)c(Cc3cccc(-c4ncn(CCC#N)n4)c3)n2)cn1` [Example 709, 3-[3-(3-{[1-(1-methyl-1H-pyrazol-4-yl)-4-oxo-1,4-dihydropyridazin-3-yl]methyl}phenyl)-1H-1,2,4-triazol-1-yl]propanenitrile] and `CNCc1cnc(-c2cccc(Cc3nn(-c4cnn(C)c4)ccc3=O)c2)nc1` [Example 427, 3-(3-{5-[(methylamino)methyl]pyrimidin-2-yl}benzyl)-1-(1-methyl-1H-pyrazol-4-yl)pyridazin-4(1H)-one] fall in the same range of IC50: 100 to 1000 nM for the first, 100 to 1000 nM for the second.

`O=c1ccn(-c2ccc(F)c(F)c2)nc1Cc1cccc(-c2ncc(OC3CCOC3)cn2)c1` (single isomer, unassigned) [Example 350, 1-(3,4-difluorophenyl)-3-(3-{5-[(3S or R)-tetrahydrofuran-3-yloxy]pyrimidin-2-yl}benzyl)pyridazin-4(1H)-one] and `O=c1ccn(-c2ccc(F)c(F)c2)nc1Cc1cccc(-c2ncc(OC3COC3)cn2)c1` [Example 326, 1-(3,4-difluorophenyl)-3-{3-[5-(oxetan-3-yloxy)pyrimidin-2-yl]benzyl}pyridazin-4(1H)-one] cannot be ordered by IC50: < 100 nM for the first, < 100 nM for the second.

First: Cn1cc(-n2ccc(=O)c(Cc3cccc(-c4ncc(CNC5CCCCC5)cn4)c3)n2)cn1 [Example 432, 3-(3-{5-[(cyclohexyl-amino)methyl]pyrimidin-2-yl}benzyl)-1-(1-methyl-1H-pyrazol-4-yl)pyridazin-4(1H)-one]
Second: Cn1cc(-n2ccc(=O)c(Cc3cccc(-c4ncc(O[C@H]5CC[C@@H](O)CC5)cn4)c3)n2)cn1 [Example 748, 3-(3-{5-[(cis-4-hydroxycyclohexyl)oxy]pyrimidin-2-yl}benzyl)-1-(1-methyl-1H-pyrazol-4-yl)pyridazin-4(1H)-one]
The IC50 of the first is higher: 100 to 1000 nM for the first, < 100 nM for the second. The second is the more potent here.

`COCC1CCCN(c2cnc(-c3cccc(Cc4nn(-c5cnn(C)c5)ccc4=O)c3)nc2)C1` (racemic) [Example 449, rac-3-(3-{5-[3-(methoxymethyl)piperidin-1-yl]pyrimidin-2-yl}benzyl)-1-(1-methyl-1H-pyrazol-4-yl)pyridazin-4(1H)-one] and `Cn1cc(-n2ccc(=O)c(Cc3cccc(-c4ncc(N5CCC(C(N)=O)CC5)cn4)c3)n2)cn1` [Example 445, 1-[2-(3-{[1-(1-methyl-1H-pyrazol-4-yl)-4-oxo-1,4-dihydropyridazin-3-yl]methyl}phenyl)pyrimidin-5-yl]piperidine-4-carboxamide] cannot be ordered by IC50: < 100 nM for the first, < 100 nM for the second.

`CCn1cc(-n2ccc(=O)c(C(C)c3cccc(-c4ncc(OCc5ccccc5)cn4)c3)n2)cn1` (single isomer, unassigned) [Example 229, 3-((1R or S)-1-{3-[5-(benzyloxy)pyrimidin-2-yl]phenyl}ethyl)-1-(1-ethyl-1H-pyrazol-4-yl)pyridazin-4(1H)-one] and `CCn1cc(-n2ccc(=O)c(Cc3cccc(-c4ncc(OCCO)cn4)c3)n2)cn1` [Example 307, 1-(1-ethyl-1H-pyrazol-4-yl)-3-{3-[5-(2-hydroxyethoxy)pyrimidin-2-yl]benzyl}pyridazin-4(1H)-one] cannot be ordered by IC50: < 100 nM for the first, < 100 nM for the second.

`Cn1cc(-n2ccc(=O)c(Cc3cccc(-c4ncc(OCCc5cnoc5)cn4)c3)n2)cn1` [Example 273, 3-{3-[5-(2-isoxazol-4-ylethoxy)pyrimidin-2-yl]benzyl}-1-(1-methyl-1H-pyrazol-4-yl)pyridazin-4(1H)-one] and `CCOc1cnc(-c2ccc(F)c(Cc3nn(-c4cnn(C)c4)ccc3=O)c2)nc1` [Example 118, 3-[5-(5-ethoxypyrimidin-2-yl)-2-fluorobenzyl]-1-(1-methyl-1H-pyrazol-4-yl)pyridazin-4(1H)-one] cannot be ordered by IC50: < 100 nM for the first, < 100 nM for the second.

First: COCCOc1cnc(-c2cccc(Cc3nn(-c4ccc(C#N)cc4)ccc3=O)c2)nc1 [Example 138, 4-[3-{3-[5-(2-methoxyethoxy)pyrimidin-2-yl]benzyl}-4-oxopyridazin-1(4H)-yl]benzonitrile]
Second: O=c1ccn(-c2ccc(F)c(F)c2)nc1Cc1cccc(-c2ncc(O)cn2)c1 [Example 188, 1-(3,4-Difluorophenyl)-3-[3-(5-hydroxypyrimidin-2-yl)benzyl]pyridazin-4(1H)-one]
The IC50 of the first is lower: < 100 nM for the first, 100 to 1000 nM for the second.

First: O=c1ccn(-c2ccccc2)nc1Cc1cccc(-c2ccccn2)c1 [Example 671, 1-phenyl-3-(3-pyridin-2-ylbenzyl) pyridazin-4(1H)-one]
Second: CCn1cnc(-c2cccc(Cc3nn(-c4cccc(C(N)=O)c4)ccc3=O)c2)n1 [Example 734, 3-{3-[3-(1-Ethyl-1H-1,2,4-triazol-3-yl)benzyl]-4-oxopyridazin-1(4H)-yl}benzamide]
The IC50 of the first is higher: 1000 to 3000 nM for the first, < 100 nM for the second. The second is the more potent here.

`CCOC(=O)Nc1cccc(Cc2nn(-c3cc(F)cc(F)c3)ccc2=O)c1` [Example 11, ethyl (3-{[1-(3,5-difluorophenyl)-4-oxo-1,4-dihydropyridazin-3-yl]methyl}phenyl)carbamate] and `COCCN1CCC(COC(=O)Nc2cccc(Cc3nn(-c4cc(F)cc(F)c4)ccc3=O)c2)C1` (racemic) [Example 594, rac-[1-(2-methoxyethyl)pyrrolidin-3-yl]methyl-(3-{[1-(3,5-difluorophenyl)-4-oxo-1,4-dihydropyridazin-3-yl]methyl}phenyl)carbamate] cannot be ordered by IC50: < 100 nM for the first, < 100 nM for the second.

First: CCn1cc(-n2ccc(=O)c(Cc3cccc(-c4ncc(OCC5COCCO5)cn4)c3)n2)cn1 (racemic) [Example 311, rac-3-{3-[5-(1,4-dioxan-2-ylmethoxy)pyrimidin-2-yl]benzyl}-1-(1-ethyl-1H-pyrazol-4-yl)pyridazin-4(1H)-one]
Second: Cn1cc(-n2ccc(=O)c(Cc3cccc(-c4nccs4)c3)n2)cn1 [Example 20, 1-(1-methyl-1H-pyrazol-4-yl)-3-[3-(1,3-thiazol-2-yl)benzyl]pyridazin-4(1H)-one]
The IC50 of the first is lower: < 100 nM for the first, 100 to 1000 nM for the second.

Compared with `Cn1cc(-n2ccc(=O)c(Cc3cccc(NC(=O)OCCF)c3)n2)cn1` [Example 499, 2-fluoroethyl (3-{[1-(1-methyl-1H-pyrazol-4-yl)-4-oxo-1,4-dihydropyridazin-3-yl]methyl}phenyl)carbamate], `CCCC(=O)Nc1cccc(Cc2nn(-c3cnn(C)c3)ccc2=O)c1` [Example 634, N-(3-{[1-(1-methyl-1H-pyrazol-4-yl)-4-oxo-1,4-dihydropyridazin-3-yl]methyl}phenyl)butanamide] is higher in IC50: < 100 nM for the first, 100 to 1000 nM for the second.

`N#Cc1cccc(-n2ccc(=O)c(Cc3cccc(NC(=O)OCC4COCCO4)c3)n2)c1` (racemic) [Example 601, rac-1,4-dioxan-2-ylmethyl (3-{[1-(3-cyanophenyl)-4-oxo-1,4-dihydropyridazin-3-yl]methyl}phenyl)carbamate] and `CCN(CC)CCCOC(=O)Nc1cccc(Cc2nn(-c3cnn(C)c3)ccc2=O)c1` [Example 571, 3-(diethylamino)propyl (3-{[1-(1-methyl-1H-pyrazol-4-yl)-4-oxo-1,4-dihydropyridazin-3-yl]methyl}phenyl)carbamate] cannot be ordered by IC50: < 100 nM for the first, < 100 nM for the second.

First: Cn1cc(-c2cnc(-c3cccc(Cc4nn(-c5ccc(F)c(F)c5)ccc4=O)c3)nc2)cn1 [Example 156, 1-(3,4-difluorophenyl)-3-{3-[5-(1-methyl-1H-pyrazol-4-yl)pyrimidin-2-yl]benzyl}pyridazin-4(1H)-one]
Second: CCc1cnc(-c2cccc(C(C)c3nn(-c4ccc(F)c(F)c4)ccc3=O)c2)nc1 (single isomer, unassigned) [Example 230, 1-(3,4-difluorophenyl)-3-{(1S or R)-1-[3-(5-ethylpyrimidin-2-yl)phenyl]ethyl}pyridazin-4(1H)-one]
The IC50 of the first is lower: < 100 nM for the first, 100 to 1000 nM for the second.

First: CCCCNC(=O)Nc1cccc(Cc2nn(-c3cnn(C)c3)ccc2=O)c1 [Example 494, 1-butyl-3-(3-{[1-(1-methyl-1H-pyrazol-4-yl)-4-oxo-1,4-dihydropyridazin-3-yl]methyl}phenyl)urea]
Second: Cc1nc(-c2cccc(C(C)c3nn(-c4cnn(C)c4)ccc3=O)c2)ncc1F (single isomer, unassigned) [Example 693, 3-{(1R or S)-1-[3-(5-fluoro-4-methylpyrimidin-2-yl)phenyl]ethyl}-1}-1-(1-methyl-1H-pyrazol-4-yl)pyridazin-4(1H)-one]
The IC50 of the first is lower: < 100 nM for the first, 100 to 1000 nM for the second. The first is the more potent here.
